The values below are quoted from earlier work in patent US12084679B2, “Methods of in vitro differentiation of midbrain dopamine (mDA) neurons” (MEMORIAL SLOAN-KETTERING CANCER CENTER, priority 2015, dated 2024).

Molecules are shown by their SMILES.

One data set addresses ALK6 (Homo sapiens, UniProt O00238).
The next data set deals with ALK3 (Homo sapiens, UniProt P36894).
The target of the next data set is T1, ALK2 (Homo sapiens, UniProt Q04771).
T1 sequence (Q04771 21-509): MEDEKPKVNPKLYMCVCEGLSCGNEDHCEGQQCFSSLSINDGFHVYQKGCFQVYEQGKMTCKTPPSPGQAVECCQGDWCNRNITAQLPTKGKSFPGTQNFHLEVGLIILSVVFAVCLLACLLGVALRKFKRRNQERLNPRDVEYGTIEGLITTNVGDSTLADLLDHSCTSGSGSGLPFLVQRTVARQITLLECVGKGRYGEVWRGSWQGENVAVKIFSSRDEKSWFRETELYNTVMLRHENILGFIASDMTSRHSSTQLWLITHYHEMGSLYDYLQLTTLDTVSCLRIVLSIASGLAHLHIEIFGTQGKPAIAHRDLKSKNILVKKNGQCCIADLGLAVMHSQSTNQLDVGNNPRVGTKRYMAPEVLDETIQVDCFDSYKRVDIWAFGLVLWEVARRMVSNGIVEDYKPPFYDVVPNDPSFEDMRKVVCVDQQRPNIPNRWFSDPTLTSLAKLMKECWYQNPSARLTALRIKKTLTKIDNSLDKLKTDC

Chain of ALK3 (P36894 24-532, species assumed): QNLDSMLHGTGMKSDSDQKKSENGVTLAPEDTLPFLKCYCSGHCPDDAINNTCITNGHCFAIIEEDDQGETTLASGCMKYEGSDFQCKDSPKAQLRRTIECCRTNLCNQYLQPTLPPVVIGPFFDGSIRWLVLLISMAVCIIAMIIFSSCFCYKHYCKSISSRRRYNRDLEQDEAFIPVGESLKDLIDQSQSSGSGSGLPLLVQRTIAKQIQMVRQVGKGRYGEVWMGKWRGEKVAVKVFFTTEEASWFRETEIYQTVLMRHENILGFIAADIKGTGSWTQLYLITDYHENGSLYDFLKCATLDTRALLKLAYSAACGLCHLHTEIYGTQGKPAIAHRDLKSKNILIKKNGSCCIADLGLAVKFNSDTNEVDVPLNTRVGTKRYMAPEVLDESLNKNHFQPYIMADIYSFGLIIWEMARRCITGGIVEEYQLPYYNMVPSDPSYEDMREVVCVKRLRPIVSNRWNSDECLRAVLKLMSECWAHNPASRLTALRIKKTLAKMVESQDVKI
Chain of ALK6 (O00238 14-502): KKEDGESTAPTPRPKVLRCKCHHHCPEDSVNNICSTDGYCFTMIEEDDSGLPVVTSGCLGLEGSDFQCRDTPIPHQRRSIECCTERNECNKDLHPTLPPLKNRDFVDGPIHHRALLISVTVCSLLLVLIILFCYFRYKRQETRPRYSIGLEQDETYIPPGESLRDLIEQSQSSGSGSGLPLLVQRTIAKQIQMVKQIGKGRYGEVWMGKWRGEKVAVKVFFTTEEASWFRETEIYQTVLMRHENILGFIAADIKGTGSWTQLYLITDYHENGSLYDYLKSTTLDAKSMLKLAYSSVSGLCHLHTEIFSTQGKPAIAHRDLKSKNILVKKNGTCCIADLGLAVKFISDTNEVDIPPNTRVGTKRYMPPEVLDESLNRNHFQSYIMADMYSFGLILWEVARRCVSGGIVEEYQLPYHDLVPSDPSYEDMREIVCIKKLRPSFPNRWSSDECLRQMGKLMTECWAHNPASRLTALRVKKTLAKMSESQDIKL

`c1ccc2c(-c3cnn4cc(-c5ccc(N6CCNCC6)cc5)cnc34)ccnc2c1` [LDN193189, 4-(6-(4-(piperazin-1-yl)phenyl)pyrazolo[1,5-a]pyrimidin-3-yl)quinoline]: at ALK6, the “inhibitor of ALK6” value is “highly potent”. Further, at ALK3, the “inhibitor of ALK3” value is “highly potent”. Further, the “inhibitor of ALK2” value at ALK2 is listed as “highly potent”.
`Cc1c[nH]c(-c2cnc(NCCNc3ccc(C#N)cn3)nc2-c2ccc(Cl)cc2Cl)n1` [CHIR99021, 6-(2-(4-(2,4-dichlorophenyl)-5-(4-methyl-H-imidazol-2-yl)pyrimidin-2-ylamino)ethylamino)nicotinonitrile]: the “IC50 values against rodent GSK3β homologs” value with rodent GSK3β homologs is “nanomolar”.
